# From ChEMBL document CHEMBL1201862, “PubChem BioAssay data set” (2004)
#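 Dose response: 5 concentrations. Exposure: 48 h. Format: 96-well plates. Endpoint: linear interpolation; highest concentration if not reached. Here, GI50 denotes the concentration required for 50% inhibition of growth.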 Active and inactive are the calls of the source. Rule as the data show it: active = GI50 up to about 1.1 µM and inactive = higher. Peptide text beside a SMILES is read from it. * marks the point of attachment. Boc = CC(C)(C)OC(=O)*; OBn = c1ccc(CO*)cc1
# Legend:
# Assay in all cases: inhibition of tumour cell growth, NCI panel, 48 h
# KM12 = system: KM12
# T47D = system: T47D
# NCI-H226 = system: NCI-H226
# SK-OV-3 = system: SK-OV-3
# SK-MEL-2 = system: SK-MEL-2
# NCI-H522 = system: NCI-H522
# LOX IMVI = system: LOX IMVI
# SF-295 = system: SF-295
# ACHN = system: ACHN
# SN12C = system: SN12C
# RXF 393 = system: RXF 393
# Hs-578T = system: Hs-578T
# Malme-3M = system: Malme-3M
# UO-31 = system: UO-31
# K562 = system: K562
# MDA-MB-231 = system: MDA-MB-231
# HOP-62 = system: HOP-62
# MDA-N = system: MDA-N
# HCC 2998 = system: HCC 2998
# SNB-19 = system: SNB-19
SMILES,GI50 (KM12),GI50 (T47D),GI50 (NCI-H226),GI50 (SK-OV-3),GI50 (SK-MEL-2),GI50 (NCI-H522),GI50 (LOX IMVI),GI50 (SF-295),GI50 (ACHN),GI50 (SN12C),GI50 (RXF 393),GI50 (Hs-578T),GI50 (Malme-3M),GI50 (UO-31),GI50 (K562),GI50 (MDA-MB-231),GI50 (HOP-62),GI50 (MDA-N),GI50 (HCC 2998),GI50 (SNB-19)
O=C(CCn1ccnc1[N+](=O)[O-])NCCCn1ccnc1[N+](=O)[O-],> 100 µM (inactive),> 100 µM (inactive),> 100 µM (inactive),> 100 µM (inactive),> 100 µM (inactive),> 100 µM (inactive),> 100 µM (inactive),> 100 µM (inactive),> 100 µM (inactive),> 100 µM (inactive),> 100 µM (inactive),> 100 µM (inactive),> 100 µM (inactive),> 100 µM (inactive),> 100 µM (inactive),> 100 µM (inactive),> 100 µM (inactive),> 100 µM (inactive),,
Cc1ccccc1C1CC(=O)CC(c2ccccc2C)C12C(=O)NC(=S)NC2=O (stereo not drawn),22.1 µM (inactive),42.1 µM (inactive),20 µM (inactive),37.2 µM (inactive),13.4 µM (inactive),,17.2 µM (inactive),24.8 µM (inactive),18.4 µM (inactive),26.4 µM (inactive),19.6 µM (inactive),29.1 µM (inactive),25.6 µM (inactive),17.9 µM (inactive),39.5 µM (inactive),31.3 µM (inactive),27.5 µM (inactive),23.6 µM (inactive),9.64 µM (inactive),43.4 µM (inactive)
Cc1ccc(S(=O)(=O)NC(=O)C2C(=O)CC3(CCCCC3)CC2=O)cc1,19.6 µM (inactive),20 µM (inactive),34.8 µM (inactive),28.2 µM (inactive),,23.8 µM (inactive),55.2 µM (inactive),22 µM (inactive),22.9 µM (inactive),30.8 µM (inactive),38.3 µM (inactive),41.9 µM (inactive),,22.4 µM (inactive),38.1 µM (inactive),36.1 µM (inactive),25.4 µM (inactive),29.3 µM (inactive),,41.5 µM (inactive)
C=C1C(=O)OC2(C)CCC1CC1OC1(C)CCC=C(C)CCC2O (stereo not drawn),> 100 µM (inactive),> 100 µM (inactive),> 100 µM (inactive),> 100 µM (inactive),75 µM (inactive),64.7 µM (inactive),> 100 µM (inactive),> 100 µM (inactive),> 100 µM (inactive),37.1 µM (inactive),,57.5 µM (inactive),> 100 µM (inactive),57.7 µM (inactive),31 µM (inactive),> 100 µM (inactive),,25.5 µM (inactive),> 100 µM (inactive),> 100 µM (inactive)
COc1cc2c3c(n(C)c(=O)c2cc1OC)-c1cc2c(cc1/C3=C/CCCCBr)OCO2,> 100 µM (inactive),3.76 µM (inactive),,> 100 µM (inactive),> 100 µM (inactive),4.16 µM (inactive),62.8 µM (inactive),4.5 µM (inactive),4.4 µM (inactive),,> 100 µM (inactive),> 100 µM (inactive),> 100 µM (inactive),71 µM (inactive),35.6 µM (inactive),> 100 µM (inactive),,> 100 µM (inactive),,> 100 µM (inactive)
O=C1N=C(SC(SC2=NC(=O)C3(NN2)c2ccccc2-c2ccccc23)=C(SC2=NC(=O)C3(NN2)c2ccccc2-c2ccccc23)SC2=NC(=O)C3(NN2)c2ccccc2-c2ccccc23)NNC12c1ccccc1-c1ccccc12,9.29 µM (inactive),0.935 µM (active),2.76 µM (inactive),> 10 µM (inactive),,4.54 µM (inactive),> 10 µM (inactive),> 10 µM (inactive),2.07 µM (inactive),6.5 µM (inactive),> 10 µM (inactive),> 10 µM (inactive),> 10 µM (inactive),3.18 µM (inactive),5.11 µM (inactive),4.71 µM (inactive),> 10 µM (inactive),5.36 µM (inactive),> 10 µM (inactive),> 10 µM (inactive)
CC1=CC[C@@H]2[C@@H](CC[C@@]2(C)O)C(C)(C)[C@H]1CC[C@@H]1[C@@]2(C)CCC(=O)C(C)(C)O[C@@H]2CC[C@]1(C)O,15.2 µM (inactive),43.5 µM (inactive),22.5 µM (inactive),74.3 µM (inactive),36.7 µM (inactive),18.5 µM (inactive),19.1 µM (inactive),0.762 µM (active),19.5 µM (inactive),22.4 µM (inactive),,22.8 µM (inactive),,22.5 µM (inactive),,45.6 µM (inactive),32.9 µM (inactive),25 µM (inactive),18.7 µM (inactive),26.9 µM (inactive)
N=c1oc2c(Cl)cc(Cl)cc2cc1C(=O)Nc1ccccn1,13.9 µM (inactive),74.8 µM (inactive),> 100 µM (inactive),67.5 µM (inactive),42.7 µM (inactive),,,54.7 µM (inactive),22 µM (inactive),99.3 µM (inactive),19.8 µM (inactive),20.5 µM (inactive),> 100 µM (inactive),59 µM (inactive),71 µM (inactive),69.2 µM (inactive),16.4 µM (inactive),62.1 µM (inactive),81.5 µM (inactive),34.7 µM (inactive)
CCOC(=O)c1ccc(Nc2nc3ccccc3nc2-c2cccs2)cc1,49.1 µM (inactive),16.9 µM (inactive),> 100 µM (inactive),,,28.1 µM (inactive),21.9 µM (inactive),49.4 µM (inactive),47.8 µM (inactive),21.2 µM (inactive),23.7 µM (inactive),> 100 µM (inactive),> 100 µM (inactive),73.6 µM (inactive),46.8 µM (inactive),18.7 µM (inactive),> 100 µM (inactive),19 µM (inactive),23.1 µM (inactive),> 100 µM (inactive)
O=[N+]([O-])c1ccc(-n2nc3ccc4nonc4c3n2)cc1,94.8 µM (inactive),29.6 µM (inactive),17.8 µM (inactive),20 µM (inactive),47.9 µM (inactive),28.8 µM (inactive),42.4 µM (inactive),28 µM (inactive),41.3 µM (inactive),> 100 µM (inactive),,13.3 µM (inactive),24.2 µM (inactive),21.3 µM (inactive),> 100 µM (inactive),> 100 µM (inactive),16.6 µM (inactive),> 100 µM (inactive),97.3 µM (inactive),25.4 µM (inactive)
COc1cc(C2S/C(=C/c3ccccc3)C(=O)N2Cc2ccccc2)cc(OC)c1OC (stereo not drawn),36.1 µM (inactive),5.07 µM (inactive),> 100 µM (inactive),42.1 µM (inactive),39.1 µM (inactive),16.1 µM (inactive),32.1 µM (inactive),28.5 µM (inactive),64.7 µM (inactive),39.2 µM (inactive),,30.2 µM (inactive),,24.4 µM (inactive),21.8 µM (inactive),> 100 µM (inactive),26.2 µM (inactive),19.3 µM (inactive),21 µM (inactive),57.9 µM (inactive)
CC(NC(=O)Cc1ccccc1)NC(=O)C(C)C(=O)Nc1ccccc1 (stereo not drawn),> 100 µM (inactive),> 100 µM (inactive),23.3 µM (inactive),51.6 µM (inactive),> 100 µM (inactive),23.1 µM (inactive),,> 100 µM (inactive),41.6 µM (inactive),36.1 µM (inactive),47.1 µM (inactive),23.7 µM (inactive),16.1 µM (inactive),43.7 µM (inactive),> 100 µM (inactive),65.6 µM (inactive),,> 100 µM (inactive),,24 µM (inactive)
COc1cc2c(cc1OC)C13CC[N+]4(C)CC5=CCOC6CC(=O)N2C1C6C5CC34[O-] (stereo not drawn),> 100 µM (inactive),> 100 µM (inactive),> 100 µM (inactive),> 100 µM (inactive),,> 100 µM (inactive),> 100 µM (inactive),> 100 µM (inactive),> 100 µM (inactive),> 100 µM (inactive),> 100 µM (inactive),> 100 µM (inactive),> 100 µM (inactive),> 100 µM (inactive),> 100 µM (inactive),> 100 µM (inactive),> 100 µM (inactive),> 100 µM (inactive),,> 100 µM (inactive)
COc1ccc2c(c1)nc1n2C(c2c(Cl)cccc2Cl)SC1 (stereo not drawn),12.4 µM (inactive),16.9 µM (inactive),> 21.8 µM (inactive),> 51.9 µM (inactive),> 20.7 µM (inactive),,25.8 µM (inactive),5.71 µM (inactive),40.8 µM (inactive),> 57.5 µM (inactive),,5.45 µM (inactive),3.01 µM (inactive),46.5 µM (inactive),> 100 µM (inactive),29.3 µM (inactive),32.9 µM (inactive),2.26 µM (inactive),11.2 µM (inactive),> 33.5 µM (inactive)
CC(C)CC(NC(=O)OC(C)(C)C)C(=O)NC(CC(=O)OCc1ccccc1)C(N)=O (stereo not drawn) (Boc-Leu-Asp(OBn)-NH2; configuration not given here),> 100 µM (inactive),> 100 µM (inactive),> 100 µM (inactive),> 100 µM (inactive),> 100 µM (inactive),> 100 µM (inactive),> 100 µM (inactive),> 100 µM (inactive),> 100 µM (inactive),> 100 µM (inactive),> 100 µM (inactive),58.9 µM (inactive),> 100 µM (inactive),> 100 µM (inactive),> 100 µM (inactive),> 100 µM (inactive),,> 100 µM (inactive),,> 100 µM (inactive)
